Experimental data as given in patent US12385039B2, “Trinucleotide cap analogs, preparation and uses thereof” (LIFE TECHNOLOGIES CORPORATION, priority 2020, dated 2025).

How the values were obtained:
T7 RNA polymerase = T7 RNA polymerase (Escherichia phage T7, UniProt P00573); conditions: HB-WT Template, ARCA Cap (4:1 ARCA:GTP)
Protocol: The DNAzyme reaction was performed in a 20 μl reaction containing 1-2 μg RNA and 0.5 μM DNAzyme in 50 mM Tris-HCl pH 7.5. The reaction mixture was preheated at 85° C. for 30 seconds and equilibrate at 37° C. for 5 minutes and added magnesium chloride to 10 mM so that the total volume was 20 μl. The reaction mixture was incubated at 37° C. for 1 hour and stopped by adding 2 μL TURBO DNase and incubating at 37° C. for 30 minutes.
The DNAzyme reaction mixture was prepared for gel analysis by mixing with 2× NOVEX™ TBE-Urea sample buffer (Thermo Fisher Scientific, cat. no. LC6876) and heating at 70° C. for 2 minutes. The sample was loaded onto a NovEx™ 15% TBE-Urea gel (Thermo Fisher Scientific, cat. no. EC68855BOX) and ran at 15 V, 15 mA for 1 hour and 40 minutes or until the bromophenol blue dye migrated to the bottom of the gel. The gel was removed from the cassette, washed in water, and stained with SYBR™ Gold Nucleic Acid Gel Stain (Thermo Fisher Scientific, cat. no. S11494) for 5-10 minutes. Following a brief wash in water, the gel was visualized over an UV light and an image was captured using an iBRIGHT™ system (Thermo Fisher Scientific). Capping efficiency was determined using […] ™ software (ProteinSimple) to measure band intensities of the fast and slow migrating transcripts (capped transcripts are longer than uncapped transcripts; therefore uncapped migrates faster).

T7 or SP6 RNA polymerase = conditions: either 3'-OH of G or m7G can initiate elongation; cited from earlier work

T7 RNA polymerase, sequence (P00573 whole entry, looked up): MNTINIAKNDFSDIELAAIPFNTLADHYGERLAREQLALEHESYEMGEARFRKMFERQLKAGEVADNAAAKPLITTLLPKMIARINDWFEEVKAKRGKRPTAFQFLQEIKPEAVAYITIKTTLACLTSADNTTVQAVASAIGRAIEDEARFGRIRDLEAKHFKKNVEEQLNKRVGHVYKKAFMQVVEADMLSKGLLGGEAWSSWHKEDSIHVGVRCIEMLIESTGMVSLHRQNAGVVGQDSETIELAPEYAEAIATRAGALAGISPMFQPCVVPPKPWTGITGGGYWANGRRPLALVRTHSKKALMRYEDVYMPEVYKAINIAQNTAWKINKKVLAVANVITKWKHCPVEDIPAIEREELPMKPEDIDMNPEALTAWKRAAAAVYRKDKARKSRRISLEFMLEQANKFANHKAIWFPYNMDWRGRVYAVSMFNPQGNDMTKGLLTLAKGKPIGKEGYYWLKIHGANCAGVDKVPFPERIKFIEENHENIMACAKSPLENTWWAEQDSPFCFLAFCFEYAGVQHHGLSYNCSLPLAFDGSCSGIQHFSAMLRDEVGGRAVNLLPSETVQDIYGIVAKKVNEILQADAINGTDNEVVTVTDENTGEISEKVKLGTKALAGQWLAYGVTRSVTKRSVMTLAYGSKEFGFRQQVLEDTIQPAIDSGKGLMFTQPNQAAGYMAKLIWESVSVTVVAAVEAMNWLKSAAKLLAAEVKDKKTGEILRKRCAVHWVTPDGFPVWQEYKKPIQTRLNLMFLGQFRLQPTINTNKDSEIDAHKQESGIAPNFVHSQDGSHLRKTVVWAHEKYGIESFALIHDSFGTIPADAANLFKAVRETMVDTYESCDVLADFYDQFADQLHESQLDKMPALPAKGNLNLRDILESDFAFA

Row | Compound | Capping Efficiency Avg % capped (T7 RNA polymerase) [%] | capped RNA that is translatable (T7 or SP6 RNA polymerase) [%]
1 | CO[C@H]1[C@@H](O)[C@H](n2c[n+](C)c3c(=O)[nH]c(N)nc32)O[C@@H]1COP(=O)(O)OP(=O)(O)OP(=O)(O)OC[C@H]1O[C@@H](n2cnc3c(=O)[nH]c(N)nc32)[C@H](O)[C@@H]1O [ARCA Cap] | 71.93 | 
2 | Cn1c[n+]([C@@H]2O[C@H](COP(=O)(O)OP(=O)(O)OP(=O)(O)OC[C@H]3O[C@@H](n4cnc5c(=O)[nH]c(N)nc54)[C@H](O)[C@@H]3O)[C@@H](O)[C@H]2O)c2nc(N)[nH]c(=O)c21 [mCAP, m^7G(5′)ppp(5′)G] |  | ~50
